Assay results taken from US9784740B2 (priority 2013, dated 2017).
Several values for one entry are separate records, joined by “and”; a condition that tells them apart may be missing. Equal values may be shown once. Entries after “also recorded” stand apart in the source; their conditions may differ. Read-outs that look alike come from different tables or passages of the source.

Key:
[1] = target: T1, human mu opioid receptors (Homo sapiens, UniProt P35372); experiment: Inhibition of forskolin-stimulated cAMP accumulation in CHO-mu cells; conditions: for EC50: mean (95% CI)
[2] = target: T2, mu-opioid receptor (OPRM1) (Homo sapiens, UniProt P35372); experiment: β-arrestin recruitment assay (PathHunter) in U2OS-OPRM1 cells; conditions: for Description (PAM efficacy class / SAM): U2OS-OPRM1, β-arrestin PAM and SAM detection modes; for β-arrestin recruitment, agonist detection mode (compound alone): U2OS-OPRM1 cells, no orthosteric agonist
[3] = target: T2, mu-opioid receptor (OPRM1)
[4] = target: T2, mu-opioid receptor (OPRM1); experiment: cell-based
[5] = target: T3, delta opioid receptor (OPRD1) (Homo sapiens, UniProt P41143); experiment: β-arrestin recruitment assay (PathHunter) in U2OS-OPRD1 cells; format: cell-based; conditions: for β-arrestin recruitment, agonist detection mode: U2OS-OPRD1, no leu-enkephalin; for β-arrestin recruitment, PAM detection mode: U2OS-OPRD1, ~EC10 (0.4 nM) leu-enkephalin
T3 construct: host or cells: U2OS (PathHunter U2OS-OPRD1)

[6] = target: T4, mu-opioid receptor (C6mu membranes) (Rattus norvegicus, UniProt P33535); experiment: [35S]GTPγS binding in C6mu cell membranes; format: biochemical; conditions: for agonist activity of modulator in [35S]GTPγS binding: modulator alone
T4 construct: expressed in transfected cells; host or cells: C6 glioma cells (membranes)

[7] = target: T1, human mu opioid receptors; experiment: cell-based
[8] = target: T5, mu-opioid receptor (mouse brain membranes) (Mus musculus, UniProt P42866); experiment: [35S]GTPγS binding in mouse brain membranes; format: biochemical
T5 construct: membranes from a physiologically relevant tissue with endogenous levels of receptor and G-protein; from tissue; host or cells: mouse whole brain minus cerebellum, membrane homogenate

[9] = target: T4, mu-opioid receptor (C6mu membranes); format: binding
[10] = target: T4, mu-opioid receptor (C6mu membranes); experiment: DAMGO competition binding with [3H]diprenorphine in C6mu membranes; conditions: 10 uM modulator
[11] = target: T1, human mu opioid receptors
[12] = C6mu membranes, 10 uM modulator

T5 sequence (P42866 whole entry): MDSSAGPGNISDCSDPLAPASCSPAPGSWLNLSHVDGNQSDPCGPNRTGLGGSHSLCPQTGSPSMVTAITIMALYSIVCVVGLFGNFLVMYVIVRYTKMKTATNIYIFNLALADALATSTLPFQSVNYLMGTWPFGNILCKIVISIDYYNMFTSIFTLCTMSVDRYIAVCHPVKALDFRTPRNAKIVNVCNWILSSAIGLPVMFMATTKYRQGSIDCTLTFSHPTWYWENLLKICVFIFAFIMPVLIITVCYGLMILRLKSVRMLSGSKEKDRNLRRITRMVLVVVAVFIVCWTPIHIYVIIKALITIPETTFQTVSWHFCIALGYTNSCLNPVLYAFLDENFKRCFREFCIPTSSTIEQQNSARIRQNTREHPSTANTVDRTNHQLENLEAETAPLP
T1 sequence (P35372 whole entry): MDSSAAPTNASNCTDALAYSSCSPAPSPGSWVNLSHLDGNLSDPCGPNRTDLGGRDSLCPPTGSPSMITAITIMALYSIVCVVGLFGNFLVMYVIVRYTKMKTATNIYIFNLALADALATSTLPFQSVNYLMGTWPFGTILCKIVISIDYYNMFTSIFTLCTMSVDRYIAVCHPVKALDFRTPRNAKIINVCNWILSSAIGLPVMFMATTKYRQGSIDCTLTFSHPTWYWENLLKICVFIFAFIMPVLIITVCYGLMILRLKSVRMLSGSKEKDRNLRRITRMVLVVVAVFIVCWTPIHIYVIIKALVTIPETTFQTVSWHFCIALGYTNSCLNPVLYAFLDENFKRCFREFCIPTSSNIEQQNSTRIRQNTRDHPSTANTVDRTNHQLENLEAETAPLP
T2 sequence (P35372 whole entry): as above
T3 sequence (P41143 whole entry): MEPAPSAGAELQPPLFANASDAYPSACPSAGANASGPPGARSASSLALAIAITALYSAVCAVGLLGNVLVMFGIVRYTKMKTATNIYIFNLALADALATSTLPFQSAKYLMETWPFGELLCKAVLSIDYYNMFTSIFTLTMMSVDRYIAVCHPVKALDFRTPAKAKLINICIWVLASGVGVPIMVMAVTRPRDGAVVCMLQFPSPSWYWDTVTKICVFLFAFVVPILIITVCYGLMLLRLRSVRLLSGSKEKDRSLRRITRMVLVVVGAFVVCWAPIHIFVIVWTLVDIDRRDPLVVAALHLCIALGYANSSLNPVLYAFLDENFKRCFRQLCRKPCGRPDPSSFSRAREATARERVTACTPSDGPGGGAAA
T4 sequence (P33535 whole entry): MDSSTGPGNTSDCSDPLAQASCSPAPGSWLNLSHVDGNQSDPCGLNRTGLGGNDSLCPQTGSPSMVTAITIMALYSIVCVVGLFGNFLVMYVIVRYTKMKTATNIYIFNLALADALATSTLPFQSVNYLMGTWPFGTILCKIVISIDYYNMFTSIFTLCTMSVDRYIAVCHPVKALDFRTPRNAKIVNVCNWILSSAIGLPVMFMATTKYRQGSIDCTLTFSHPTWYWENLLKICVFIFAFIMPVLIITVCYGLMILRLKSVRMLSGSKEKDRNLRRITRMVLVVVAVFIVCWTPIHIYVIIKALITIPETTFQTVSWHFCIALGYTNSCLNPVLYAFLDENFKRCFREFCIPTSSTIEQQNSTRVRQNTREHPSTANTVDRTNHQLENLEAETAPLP

endomorphin-I [reference compound]
reduction in forskolin-stimulated cAMP accumulation ([1]; CHO-mu, 1 uM forskolin): 17 fold
potency in cAMP assay (CHO) relative to arrestin recruitment (U2OS PathHunter) ([1]; cAMP inhibition vs β-arrestin recruitment): ~1000 fold

COc1ccc(C2SCCN2S(=O)(=O)c2ccc(Br)cc2)cc1OC (racemic) [Analog 8]
Description (PAM efficacy class / SAM) [2]: Weak PAM
EC50 [3]: 14 µM

COc1ccc(S(=O)(=O)N2CCSC2c2ccc(OC)c(Br)c2)cc1 (stereo not drawn) [Analog 3]
Description (PAM efficacy class / SAM) [2]: Weak PAM
EC50 [4]: 6 µM

COc1ccc(C2SCCN2S(=O)(=O)c2ccc(Br)cc2)cc1 (stereo not drawn) [Analog 9]
Description (PAM efficacy class / SAM) [2]: Moderate PAM
EC50 [4]: 7 µM

COc1cc(Br)ccc1C1SCCN1S(=O)(=O)c1ccc(Cl)cc1 (racemic) [BMS-986124]
antagonist/NAM detection mode: effect on EC80 endomorphin-I response ([2]; U2OS-OPRM1, 300 nM endomorphin-I): no significant effect; also recorded: Neither compound significantly inhibited; also recorded: no NAM/antagonist activity
SAM detection mode: inhibition of BMS-986122 PAM response ([2]; U2OS-OPRM1, 12.5 uM (~EC80) BMS-986122 plus 30 nM (~EC20) endomorphin-I): able to inhibit the PAM response; also recorded: inhibited PAM responses
Description (PAM efficacy class / SAM) [2]: SAM
β-arrestin recruitment, agonist detection mode (compound alone) [2]: no activity
Kb ([2]; read-out: β-arrestin SAM Detection Mode (Kb), U2OS-OPRM1, inhibition of BMS-986122 (~EC80) response with ~EC20 endomorphin-I, Kb calculated from IC50): 2 µM
β-arrestin recruitment, agonist detection mode [5]: no activity
β-arrestin recruitment, PAM detection mode [5]: no activity
effect on DAMGO potency in [35S]GTPγS assay [6, 12]: not significantly increased
effect on morphine Emax in [35S]GTPγS assay [6, 12]: increased morphine Emax to a small degree
effect on morphine potency in [35S]GTPγS assay [6, 12]: not significantly increased
effect on DAMGO-stimulated [35S]GTPγS binding potency ([6]; C6mu membranes, 50 uM BMS-986124 alone): not affected
agonist activity of modulator in [35S]GTPγS binding ([6]; C6mu membranes): No significant agonist activity was detected

COc1ccc(C2SCCN2S(=O)(=O)c2ccccc2)cc1 (stereo not drawn) [Analog 10]
Description (PAM efficacy class / SAM) [2]: Weak PAM
EC50 [4]: 23 µM

COc1ccc(C2SCCN2S(=O)(=O)c2ccc(Cl)cc2)cc1[N+](=O)[O-] (stereo not drawn) [Analog 5]
Description (PAM efficacy class / SAM) [2]: Moderate PAM
EC50 [4]: 4 µM

COc1ccc(C2SCCN2S(=O)(=O)c2ccc(OC)cc2)cc1 (stereo not drawn) [Analog 15]
Description (PAM efficacy class / SAM) [2]: Weak PAM
EC50 [4]: 37 µM

COc1ccc(S(=O)(=O)N2CCSC2c2ccc(Br)cc2)cc1 (stereo not drawn) [Analog 14]
Description (PAM efficacy class / SAM) [2]: Weak PAM
EC50 [4]: 7 µM

COc1ccc(C2SCCN2S(=O)(=O)c2ccc(Cl)cc2)cc1Br (stereo not drawn) [BMS-986122]
Description (PAM efficacy class / SAM) [2]: Full PAM (ref)
β-arrestin recruitment, agonist detection mode (compound alone) [2]: Neither BMS-986121 nor BMS-986122 produced significant β-arrestin recruitment on their own
EC50 [7]: 8.9 µM
Emax [3]: 79%
agonist activity of modulator [8]: No agonist activity was observed
leftward shift in DAMGO potency ([8]; 10 uM modulator): 4.5 fold
effect on basal [35S]GTPγS binding ([8]; 10 uM modulator, basal 4.8±0.4 fmol bound/mg protein): not affected
EC50 [4]: 3 µM and 4.9 µM
β-arrestin recruitment, agonist detection mode [5]: Neither compound had any significant effect
β-arrestin recruitment, PAM detection mode [5]: Neither compound had any significant effect
EC50 ([1]; EC50 of agonist activity (agonist detection mode), CHO-mu, no orthosteric agonist): 41 µM
Emax ([1]; read-out: Emax of agonist activity (agonist detection mode)): 60%
effect on [3H]diprenorphine binding affinity [9]: no significant effect; also recorded: did not affect; also recorded: had no effect
increase in the affinity of DAMGO [10]: 6 fold
effect of modulator on maximal stimulation by DAMGO [6, 12]: not affected
increase in morphine potency [6, 12]: 3 fold
leftward shift in DAMGO CRC (potency) [6, 12]: 8 fold and 7 fold
agonist activity of modulator in [35S]GTPγS binding ([6]; C6mu membranes): No significant agonist activity was detected

COc1ccc(C2SCCN2S(=O)(=O)c2ccc([N+](=O)[O-])cc2)cc1Br (stereo not drawn) [Analog 1]
Description (PAM efficacy class / SAM) [2]: Moderate PAM
EC50 [4]: 2 µM

O=S(=O)(c1ccc(Cl)cc1)N1CCSC1c1ccc(Br)cc1 (stereo not drawn) [Analog 12]
Description (PAM efficacy class / SAM) [2]: Weak PAM
EC50 [4]: 6 µM

COc1ccc(C2SCCN2S(=O)(=O)c2cccc(C)c2)cc1Br (stereo not drawn) [Analog 4]
Description (PAM efficacy class / SAM) [2]: Weak PAM
EC50 [4]: 9 µM

C[C@@H](NC(=O)[C@@H](N)Cc1ccc(O)cc1)C(=O)NCC(=O)N(C)[C@@H](Cc1ccccc1)C(=O)NCCO [DAMGO, reference compound]
stimulation of [35S]GTPγS binding above basal activity ([6]; C6mu membranes, 10 uM DAMGO, 5 min): 250%
Emax ([6]; read-out: maximal stimulation by DAMGO, control): 232%

COc1ccc(C2SCCN2S(=O)(=O)c2ccc(C)cc2)cc1Br (stereo not drawn) [Analog 2]
Description (PAM efficacy class / SAM) [2]: Weak PAM
EC50 [4]: 4 µM

COc1ccc(C2SCCN2S(=O)(=O)c2ccc(Br)cc2)cc1[N+](=O)[O-] (stereo not drawn) [Analog 6]
Description (PAM efficacy class / SAM) [2]: Moderate PAM
EC50 [4]: 2 µM

O=[N+]([O-])c1ccc(-c2csc(=Nc3c(Cl)cccc3Cl)[nH]2)cc1 [BMS-986121]
β-arrestin recruitment, agonist detection mode (compound alone) [2]: Neither BMS-986121 nor BMS-986122 produced significant β-arrestin recruitment on their own
EC50 [3]: 1 µM and 1.7 µM
Emax [3]: 72%
EC50 [11]: 2.2 µM
β-arrestin recruitment, agonist detection mode [5]: Neither compound had any significant effect
β-arrestin recruitment, PAM detection mode [5]: Neither compound had any significant effect
leftward shift in potency of endomorphin-I ([1]; CHO-mu, 100 uM modulator): 4 fold and 4.3 fold
leftward shift in potency of leu-enkephalin ([1]; CHO-mu, 100 uM modulator): 4.5 fold
leftward shift in potency of morphine ([1]; CHO-mu, 100 uM modulator): 6.5 fold
Emax of agonist activity (agonist detection mode) ([1]; CHO-mu, no orthosteric agonist, 100% = 10 nM endomorphin-I): 35 (6-63) %
EC50 ([1]; read-out: EC50 of agonist activity (agonist detection mode), CHO-mu, no orthosteric agonist): 14 µM
effect of modulator on maximal stimulation by DAMGO [6, 12]: not affected
increase in morphine potency [6, 12]: 2.5 fold
leftward shift in DAMGO CRC (potency) [6, 12]: 4 fold
agonist activity of modulator in [35S]GTPγS binding ([6]; C6mu membranes): No significant agonist activity was detected

O=S(=O)(c1ccc(Cl)cc1)N1CCSC1c1cccc(Cl)c1 (stereo not drawn) [Analog 11]
Description (PAM efficacy class / SAM) [2]: Strong PAM
EC50 [4]: 5 µM
